Activity calls are given as the source filed them. No cut-off for these calls is given here.

The test system of data set [1] is Rattus norvegicus. Put plainly: Antifertility effect in Sprague-Dawley rat assessed as number of pregnant animals at 40 mg/kg, po administered postcoitally for 1 to 10 days. In kind it is functional, organism-based. On the set-up: dose 40 mg/kg.
Data set [2] concerns Rattus norvegicus. The experiment in a line: Toxicity in Sprague-Dawley rat at 40 mg/kg. The format is organism-based. Conditions: in vivo. The arrangement: dose 40 mg/kg.
For data set [3], the system named is Rattus norvegicus. The experiment in a line: Antifertility effect in Sprague-Dawley rat assessed as number of pregnant animals at 10 mg/kg administered postcoitally for 1 to 10 days. In kind it is functional, organism-based. On the set-up: dose 10 mg/kg.
In another data set the test system is Syrian golden hamster. Put plainly: Toxicity in golden syrian hamster at 25 mg/kg. In kind it is organism-based, Mesocricetus auratus. The arrangement: dose 25 mg/kg. Conditions: in vivo.
For data set [4], the system named is Mus musculus. The experiment in a line: Antifertility effect in CD1 mouse assessed as number of pregnant animals at 50 mg/kg, po administered postcoitally for 6 days. On the set-up: dose 50 mg/kg. In kind it is functional, organism-based.
Data set [5] concerns Mus musculus. The experiment in a line: Antifertility effect in CD1 mouse assessed as number of pregnant animals at 100 mg/kg, po administered postcoitally for 6 days. In kind it is functional, organism-based. The arrangement: dose 100 mg/kg.
The subject of data set [6] is Rattus norvegicus. Put plainly: Antifertility effect in Sprague-Dawley rat assessed as number of pregnant animals at 40 mg/kg, po administered postcoitally for 1 to 6 days. The format is functional, organism-based. The arrangement: dose 40 mg/kg.
The test system of data set [7] is Rattus norvegicus. The experiment in a line: Antifertility effect in Sprague-Dawley rat assessed as number of pregnant animals at 2 mg/kg administered postcoitally for 1 to 10 days. In kind it is functional, organism-based. The arrangement: dose 2 mg/kg.
Data set [8] has as its system Rattus norvegicus. Put plainly: Antifertility effect in Sprague-Dawley rat assessed as number of pregnant animals at 58 mg/kg, po administered postcoitally for 1 to 6 days. The format is functional, organism-based. On the set-up: dose 58 mg/kg.

With `COc1cccc2c1cc([N+](=O)[O-])c1c(C(=O)O)cc3c(c12)OCO3` [ARISTOLOCHIC ACID], in the data set on Rattus norvegicus [1], the outcome was Active. Moreover, the result in the data set with Rattus norvegicus [2] and with Syrian golden hamster was Active. In the data set on Rattus norvegicus [3], the result was inactive. In the case of `COC(=O)c1cc2c(c3c1ccc1c(OC)cccc13)OCO2`, in the data set on Mus musculus [4], the outcome was inactive.

Regarding `C[C@@H]1CCC[C@]23C[C@@H](CC[C@@]12C)[C@@](C)(O)C3`, in the data set on Mus musculus [5], the result was inactive. Consider `COc1cccc2c1ccc1c(C(=O)O)cc3c(c12)OCO3`, for which the result in the data set with Rattus norvegicus [6] and in the data set with Rattus norvegicus [7] was inactive. In the case of `O=C1OC[C@H](Cc2ccc3c(c2)OCO3)/C1=C\c1ccc2c(c1)OCO2`, the result with Rattus norvegicus [8] was inactive.

These data come from ChEMBL document CHEMBL1151300, “Studies on Aristolochia III. Isolation and biological evaluation of constituents of Aristolochia indica roots for fertility-regulating activity” (J Nat Prod, 1984).
